# Measured values published in ChEMBL document CHEMBL1128075, “Chemical modification and structure-activity relationships of pyripyropenes; potent, bioavailable inhibitor of acyl-CoA: Cholesterol O-acyltransferase (ACAT)” (Bioorg Med Chem Lett, 1995).
# Target: T1, Sterol O-acyltransferase 2 (Rattus norvegicus, UniProt Q7TQM4)
# T1 sequence (Q7TQM4 whole entry): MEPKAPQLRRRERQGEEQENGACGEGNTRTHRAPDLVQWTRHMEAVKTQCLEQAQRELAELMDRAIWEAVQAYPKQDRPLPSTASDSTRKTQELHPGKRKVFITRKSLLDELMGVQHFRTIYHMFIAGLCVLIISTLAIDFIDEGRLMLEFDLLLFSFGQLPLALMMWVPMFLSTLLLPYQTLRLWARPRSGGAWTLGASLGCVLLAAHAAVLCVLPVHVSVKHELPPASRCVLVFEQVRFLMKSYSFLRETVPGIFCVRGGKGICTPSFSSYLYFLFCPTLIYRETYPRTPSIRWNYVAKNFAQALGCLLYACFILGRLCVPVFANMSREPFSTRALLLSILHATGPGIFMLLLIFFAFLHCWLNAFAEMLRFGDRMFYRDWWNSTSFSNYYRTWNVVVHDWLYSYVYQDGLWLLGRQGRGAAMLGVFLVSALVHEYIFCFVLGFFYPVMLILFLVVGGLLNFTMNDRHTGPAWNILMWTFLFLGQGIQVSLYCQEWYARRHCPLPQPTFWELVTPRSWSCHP
# Assay: Inhibitory activity against acyl-CoA:cholesterol O-acyltransferase (ACAT)
row,SMILES,IC50 [nM]
1,CCCC(N)C(=O)O[C@H]1c2c(cc(-c3cccnc3)oc2=O)O[C@@]2(C)C1[C@@]1(C)CC[C@H](OC(C)=O)[C@@](C)(COC(C)=O)C1C[C@@H]2OC(C)=O (stereo partly specified),16000
2,CCCC(N)C(=O)O[C@H]1CC[C@@]2(C)C(C[C@H](OC(C)=O)[C@@]3(C)Oc4cc(-c5cccnc5)oc(=O)c4[C@H](O)C23)[C@]1(C)COC(C)=O (stereo partly specified),620
3,CCCC(N)C(=O)O[C@H]1CC2[C@](C)(CC[C@@H]3OC(=O)OC[C@@]23C)C2[C@@H](O)c3c(cc(-c4cccnc4)oc3=O)O[C@@]21C (stereo partly specified),2500
4,CCCCO[C@H]1c2c(cc(-c3cccnc3)oc2=O)O[C@@]2(C)C1[C@@]1(C)CC[C@H](OC(C)=O)[C@@](C)(COC(C)=O)C1C[C@@H]2OC(C)=O (stereo partly specified),2400
5,CCCC(N)C(=O)O[C@H]1CC2[C@](C)(CC[C@H](O)[C@@]2(C)CO)C2[C@@H](O)c3c(cc(-c4cccnc4)oc3=O)O[C@@]21C (stereo partly specified),79000
6,CC(=O)O[C@H]1CC[C@@]2(C)C(C[C@H](OC(C)=O)[C@@]3(C)Oc4cc(-c5cccnc5)oc(=O)c4[C@H](O)C23)[C@]1(C)COCC(C)C (stereo partly specified),5900
7,CCCC(N)C(=O)O[C@H]1CC2[C@](C)(CC[C@@H]3OC4(CCCCC4)OC[C@@]23C)C2[C@@H](O)c3c(cc(-c4cccnc4)oc3=O)O[C@@]21C (stereo partly specified),39
8,CCCO[C@H]1c2c(cc(-c3cccnc3)oc2=O)O[C@@]2(C)C1[C@@]1(C)CC[C@H](OC(C)=O)[C@@](C)(COC(C)=O)C1C[C@@H]2OC(C)=O (stereo partly specified),23000
9,CCCCOC[C@@]1(C)C2C[C@H](OC(C)=O)[C@@]3(C)Oc4cc(-c5cccnc5)oc(=O)c4[C@H](O)C3[C@@]2(C)CC[C@@H]1OC(C)=O (stereo partly specified),4200
10,CCCC(N)C(=O)O[C@H]1CC2[C@](C)(CC[C@@H]3OC(c4ccccc4)OC[C@@]23C)C2[C@@H](O)c3c(cc(-c4cccnc4)oc3=O)O[C@@]21C (stereo partly specified),6
11,CC(=O)OC[C@@]1(C)C2C[C@H](OCC(C)C)[C@@]3(C)Oc4cc(-c5cccnc5)oc(=O)c4[C@H](O)C3[C@@]2(C)CC[C@@H]1OC(C)=O (stereo partly specified),130
12,CC(=O)OC[C@@]1(C)C2C[C@H](OC(C)=O)[C@@]3(C)Oc4cc(-c5cccnc5)oc(=O)c4[C@H](O)C3[C@@]2(C)CC[C@@H]1OCC(C)C (stereo partly specified),130
13,CCCC(N)C(=O)OC[C@@]1(C)C2C[C@H](OC(C)=O)[C@@]3(C)Oc4cc(-c5cccnc5)oc(=O)c4[C@H](O)C3[C@@]2(C)CC[C@@H]1OC(C)=O (stereo partly specified),> 8000
14,CCCC(N)C(=O)O[C@H]1CC2[C@](C)(CC[C@@H]3OC(C)(c4ccccc4)OC[C@@]23C)C2[C@@H](O)c3c(cc(-c4cccnc4)oc3=O)O[C@@]21C (stereo partly specified),910
15,CCCC(N)C(=O)O[C@H]1CC2[C@](C)(CC[C@@H]3OC(CC)OC[C@@]23C)C2[C@@H](O)c3c(cc(-c4cccnc4)oc3=O)O[C@@]21C (stereo partly specified),33
16,CC(=O)OC[C@@]1(C)C2C[C@H](OC(C)=O)[C@@]3(C)Oc4cc(-c5cccnc5)oc(=O)c4C=C3[C@@]2(C)CC[C@@H]1OC(C)=O (stereo partly specified),5800
17,CCCC(N)C(=O)O[C@H]1CC2[C@](C)(CC[C@@H]3OC(C)(C)OC[C@@]23C)C2[C@@H](O)c3c(cc(-c4cccnc4)oc3=O)O[C@@]21C (stereo partly specified),86
18,CC(=O)OC[C@@]1(C)C2C[C@H](OC(C)=O)[C@@]3(C)Oc4cc(-c5ccc[n+]([O-])c5)oc(=O)c4[C@H](O)C3[C@@]2(C)CC[C@@H]1OC(C)=O (stereo partly specified),5800
19,CCCO[C@H]1CC[C@@]2(C)C(C[C@H](OC(C)=O)[C@@]3(C)Oc4cc(-c5cccnc5)oc(=O)c4[C@H](O)C23)[C@]1(C)COC(C)=O (stereo partly specified),140
20,CCCCO[C@H]1CC2[C@](C)(CC[C@H](OC(C)=O)[C@@]2(C)COC(C)=O)C2[C@@H](O)c3c(cc(-c4cccnc4)oc3=O)O[C@@]21C (stereo partly specified),38

row,SMILES,IC50 [nM]
1,CCCO[C@H]1CC2[C@](C)(CC[C@H](OC(C)=O)[C@@]2(C)COC(C)=O)C2[C@@H](O)c3c(cc(-c4cccnc4)oc3=O)O[C@@]21C (stereo partly specified),67
2,CCCC(N)C(=O)O[C@H]1CC2[C@](C)(CC[C@@H]3OC(C)OC[C@@]23C)C2[C@@H](O)c3c(cc(-c4cccnc4)oc3=O)O[C@@]21C (stereo partly specified),25
3,CCCOC[C@@]1(C)C2C[C@H](OC(C)=O)[C@@]3(C)Oc4cc(-c5cccnc5)oc(=O)c4[C@H](O)C3[C@@]2(C)CC[C@@H]1OC(C)=O (stereo partly specified),270
4,CCCCO[C@H]1CC[C@@]2(C)C(C[C@H](OC(C)=O)[C@@]3(C)Oc4cc(-c5cccnc5)oc(=O)c4[C@H](O)C23)[C@]1(C)COC(C)=O (stereo partly specified),200
5,CCCC(N)C(=O)O[C@H]1CC2[C@](C)(CC[C@H](OC(C)=O)[C@@]2(C)COC(C)=O)C2[C@@H](O)c3c(cc(-c4cccnc4)oc3=O)O[C@@]21C (stereo partly specified),13
6,"CC(=O)OCC1(C)C2C[C@H](OCc3ccccc3)[C@@]3(C)Oc4cc(-c5cccnc5)oc(=O)c4[C@H](O)C3[C@@]2(C)CC[C@@H]1OC(C)=O (single isomer, unassigned)",7400
7,"CC(=O)O[C@H]1CC2C3(C)COC(C)(C)O[C@H]3CC[C@]2(C)C2[C@@H](O)c3c(cc(-c4cccnc4)oc3=O)O[C@@]21C (single isomer, unassigned)",1200
8,"CC(=O)O[C@H]1CC[C@@]2(C)C(C[C@H](OC(C)=O)[C@@]3(C)Oc4cc(-c5cccnc5)oc(=O)c4[C@H](O)C23)C1(C)COS(C)(=O)=O (single isomer, unassigned)",19
9,"CC(=O)O[C@H]1CC[C@@]2(C)C(C[C@H](OC(C)=O)[C@@]3(C)Oc4cc(-c5cccnc5)oc(=O)c4[C@H](O)C23)C1(C)COS(=O)(=O)c1ccccc1 (single isomer, unassigned)",110000
10,"CO[C@H]1c2c(cc(-c3cccnc3)oc2=O)O[C@@]2(C)C1[C@@]1(C)CC[C@H](OC(C)=O)C(C)(COC(C)=O)C1C[C@@H]2OC(C)=O (single isomer, unassigned)",38000
11,"CC(=O)O[C@H]1CC2C3(C)COC(c4ccccc4)O[C@H]3CC[C@]2(C)C2[C@@H](O)c3c(cc(-c4cccnc4)oc3=O)O[C@@]21C (single isomer, unassigned)",120
12,"CC12COC(c3ccccc3)O[C@H]1CC[C@@]1(C)C2C[C@H](O)[C@@]2(C)Oc3cc(-c4cccnc4)oc(=O)c3[C@H](O)C12 (single isomer, unassigned)",> 180000
13,"CC1(CO)C2C[C@H](O)[C@@]3(C)Oc4cc(-c5cccnc5)oc(=O)c4[C@H](O)C3[C@@]2(C)CC[C@@H]1O (single isomer, unassigned)",> 220000
14,"CC(=O)OCC1(C)C2C[C@H](OC(C)=O)[C@@]3(C)Oc4cc(-c5ccc[n+](C)c5)oc(=O)c4[C@H](O)C3[C@@]2(C)CC[C@@H]1OC(C)=O (single isomer, unassigned)",2100
15,"CC1(C)OCC2(C)C3C[C@H](O)[C@@]4(C)Oc5cc(-c6cccnc6)oc(=O)c5[C@H](O)C4[C@@]3(C)CC[C@@H]2O1 (single isomer, unassigned)",> 200000
16,"CC(=O)OCC1(C)C2C[C@H](OC(C)=O)[C@@]3(C)Oc4cc(-c5cccnc5)oc(=O)c4C(=O)C3[C@@]2(C)CC[C@@H]1OC(C)=O (single isomer, unassigned)",2100
17,"CC(=O)O[C@H]1CC2C(C)(CO)[C@@H](O)CC[C@]2(C)C2[C@@H](O)c3c(cc(-c4cccnc4)oc3=O)O[C@@]21C (single isomer, unassigned)",100000
18,"CC(=O)OCC1(C)C2C[C@H](OS(C)(=O)=O)[C@@]3(C)Oc4cc(-c5cccnc5)oc(=O)c4[C@H](O)C3[C@@]2(C)CC[C@@H]1OC(C)=O (single isomer, unassigned)",1800
19,"CC(=O)OCC1(C)C2C[C@H](OC(C)=O)[C@@]3(C)Oc4cc(-c5cccnc5)oc(=O)c4[C@H](OC(C)=O)C3[C@@]2(C)CC[C@@H]1OC(C)=O (single isomer, unassigned)",5100
20,"CC(=O)OCC1(C)C2C[C@H](OS(=O)(=O)c3ccccc3)[C@@]3(C)Oc4cc(-c5cccnc5)oc(=O)c4[C@H](O)C3[C@@]2(C)CC[C@@H]1OC(C)=O (single isomer, unassigned)",3100

# System: Cricetinae gen. sp.
# Assay: Effective dose for inhibition of [3H]- cholesterol absorption in a hamster model.
# Type: functional, Cricetulus griseus
row,SMILES,ED50 [mg/kg]
1,"CC(=O)O[C@H]1CC[C@@]2(C)C(C[C@H](OC(C)=O)[C@@]3(C)Oc4cc(-c5cccnc5)oc(=O)c4[C@H](O)C23)C1(C)COS(C)(=O)=O (single isomer, unassigned)",10
